Measured values taken from ChEMBL document CHEMBL5303573, “Mapping human microbiome drug metabolism by gut bacteria and their genes” (Nature, 2019).

Experiments:
[1] = The drug is tested on Bifidobacterium longum subsp. Infantis strain: CCUG52486 for biotransformation. The drug concentrations were measured before and after a 12-h incubation by liquid-chromatography-coupled mass spectrometry (LC–MS); settings: 2 µM
[2] = The drug is tested on Bifidobacterium ruminantium strain: fecal isolate for biotransformation. The drug concentrations were measured before and after a 12-h incubation by liquid-chromatography-coupled mass spectrometry (LC–MS); settings: 2 µM
[3] = The drug is tested on Collinsella aerofaciens strain: ATCC25986 for biotransformation. The drug concentrations were measured before and after a 12-h incubation by liquid-chromatography-coupled mass spectrometry (LC–MS); settings: 2 µM
[4] = The drug is tested on Bacteroides cellulosilyticus strain: DSM14838 for biotransformation. The drug concentrations were measured before and after a 12-h incubation by liquid-chromatography-coupled mass spectrometry (LC–MS); settings: 2 µM
[5] = The drug is tested on Bacteroides vulgatus strain: ATCC8482 for biotransformation. The drug concentrations were measured before and after a 12-h incubation by liquid-chromatography-coupled mass spectrometry (LC–MS); settings: phocaeicola vulgatus, 2 µM
[6] = The drug is tested on Anaerotruncus colihominis strain: DSM17241 for biotransformation. The drug concentrations were measured before and after a 12-h incubation by liquid-chromatography-coupled mass spectrometry (LC–MS); settings: 2 µM
[7] = The drug is tested on Clostridium scindens strain: ATCC35704 for biotransformation. The drug concentrations were measured before and after a 12-h incubation by liquid-chromatography-coupled mass spectrometry (LC–MS); settings: 2 µM
[8] = The drug is tested on Dorea formicigenerans strain: ATCC27755 for biotransformation. The drug concentrations were measured before and after a 12-h incubation by liquid-chromatography-coupled mass spectrometry (LC–MS); settings: 2 µM
[9] = The drug is tested on Ruminococcus lactaris strain: ATCC29176 for biotransformation. The drug concentrations were measured before and after a 12-h incubation by liquid-chromatography-coupled mass spectrometry (LC–MS); settings: 2 µM
[10] = The drug is tested on Ruminococcus torques strain: ATCC27756 for biotransformation. The drug concentrations were measured before and after a 12-h incubation by liquid-chromatography-coupled mass spectrometry (LC–MS); assay type: ADME; set-up: dose 2 uM, timepoint 0 vs 12 hours; settings: 2 µM
[11] = bacteroides fragilis, 12 h, 2 µM
Description: The drug is tested on Bacteroides fragilis strain: DS-208 for biotransformation. The drug concentrations were measured before and after a 12-h incubation by liquid-chromatography-coupled mass spectrometry (LC–MS)

[12] = bacteroides intestinalis, 12 h, 2 µM
Description: The drug is tested on Bacteroides intestinalis strain: DSM17393 for biotransformation. The drug concentrations were measured before and after a 12-h incubation by liquid-chromatography-coupled mass spectrometry (LC–MS)

[13] = bacteroides thetaiotaomicron, 12 h, 2 µM
Description: The drug is tested on Bacteroides thetaiotaomicron strain: VPI-5482 for biotransformation. The drug concentrations were measured before and after a 12-h incubation by liquid-chromatography-coupled mass spectrometry (LC–MS)

[14] = parabacteroides johnsonii, 12 h, 2 µM
Description: The drug is tested on Parabacteroides johnsonii strain: DSM18315 for biotransformation. The drug concentrations were measured before and after a 12-h incubation by liquid-chromatography-coupled mass spectrometry (LC–MS)

[15] = anaerostipes sp., 12 h, 2 µM
Description: The drug is tested on Anaerostipes sp. strain: fecal isolate for biotransformation. The drug concentrations were measured before and after a 12-h incubation by liquid-chromatography-coupled mass spectrometry (LC–MS)

[16] = The drug is tested on Parabacteroides merdae strain: ATCC43184 for biotransformation. The drug concentrations were measured before and after a 12-h incubation by liquid-chromatography-coupled mass spectrometry (LC–MS); settings: 2 µM
[17] = The drug is tested on Ruminococcus gnavus strain: ATCC29149 for biotransformation. The drug concentrations were measured before and after a 12-h incubation by liquid-chromatography-coupled mass spectrometry (LC–MS); settings: mediterraneibacter gnavus, 2 µM
[18] = bifidobacterium adolescentis, 12 h, 2 µM
Description: The drug is tested on Bifidobacterium adolescentis strain: ATCC 15703 for biotransformation. The drug concentrations were measured before and after a 12-h incubation by liquid-chromatography-coupled mass spectrometry (LC–MS)

Row | SMILES | Bacterial Biotransformation [1] | Bacterial Biotransformation [2] | Bacterial Biotransformation [3] | Bacterial Biotransformation [4] | Bacterial Biotransformation [5] | Bacterial Biotransformation [6] | Bacterial Biotransformation [7] | Bacterial Biotransformation [8] | Bacterial Biotransformation [9] | Bacterial Biotransformation [10] | Bacterial Biotransformation [11] | Bacterial Biotransformation [12] | Bacterial Biotransformation [13] | Bacterial Biotransformation [14] | Bacterial Biotransformation [15] | Bacterial Biotransformation [16] | Bacterial Biotransformation [17] | Bacterial Biotransformation [18]
1 | C[C@@H](CO)NC(=O)[C@@H]1C=C2c3cccc4[nH]cc(c34)C[C@H]2N(C)C1.O=C(O)/C=C\C(=O)O [ERGONOVINE MALEATE] | Compound metabolized | Compound NOT metabolized | Compound metabolized | Compound metabolized | Compound metabolized | Compound metabolized | Compound metabolized | Compound metabolized | Compound metabolized | Compound NOT metabolized | Compound metabolized | Compound metabolized | Compound metabolized | Compound metabolized | Compound NOT metabolized | – | – | –
2 | O=C1N=C([O-])NC1(c1ccccc1)c1ccccc1.[Na+] [PHENYTOIN SODIUM] | – | Compound metabolized | Compound metabolized | Compound metabolized | Compound metabolized | Compound NOT metabolized | Compound NOT metabolized | Compound NOT metabolized | – | Compound NOT metabolized | Compound NOT metabolized | Compound NOT metabolized | Compound NOT metabolized | Compound metabolized | Compound NOT metabolized | Compound metabolized | Compound NOT metabolized | Compound NOT metabolized
3 | CCCCc1nc(Cl)c(CO)n1Cc1ccc(-c2ccccc2-c2nn[nH]n2)cc1 [LOSARTAN] | Compound NOT metabolized | Compound metabolized | Compound NOT metabolized | Compound metabolized | Compound metabolized | Compound NOT metabolized | Compound NOT metabolized | Compound NOT metabolized | Compound NOT metabolized | Compound NOT metabolized | – | – | – | Compound metabolized | Compound NOT metabolized | Compound metabolized | Compound NOT metabolized | Compound NOT metabolized
